From publication PMC9182007, “Statistical Methods in the Study of Protein Binding and Its Relationship to Drug Bioavailability in Breast Milk” (Molecules, 2022)
Where two headings read alike, the source gives them in different places.

Assays:
[1] = HPLC on immobilized artificial membrane column (HPLCIAM); assay type: physicochemical; conditions: for log k IAM: Table S5, IAM column, pH 7.4; for k IAM: Table S5, retention factor, IAM column, phosphate buffer pH 7.4/acetonitrile 80:20; for kIAM / log kIAM: Table S9, external group
[2] = biological target: T1, human serum albumin (HSA) (Homo sapiens, UniProt P02768)
T1 sequence (P02768 25-609): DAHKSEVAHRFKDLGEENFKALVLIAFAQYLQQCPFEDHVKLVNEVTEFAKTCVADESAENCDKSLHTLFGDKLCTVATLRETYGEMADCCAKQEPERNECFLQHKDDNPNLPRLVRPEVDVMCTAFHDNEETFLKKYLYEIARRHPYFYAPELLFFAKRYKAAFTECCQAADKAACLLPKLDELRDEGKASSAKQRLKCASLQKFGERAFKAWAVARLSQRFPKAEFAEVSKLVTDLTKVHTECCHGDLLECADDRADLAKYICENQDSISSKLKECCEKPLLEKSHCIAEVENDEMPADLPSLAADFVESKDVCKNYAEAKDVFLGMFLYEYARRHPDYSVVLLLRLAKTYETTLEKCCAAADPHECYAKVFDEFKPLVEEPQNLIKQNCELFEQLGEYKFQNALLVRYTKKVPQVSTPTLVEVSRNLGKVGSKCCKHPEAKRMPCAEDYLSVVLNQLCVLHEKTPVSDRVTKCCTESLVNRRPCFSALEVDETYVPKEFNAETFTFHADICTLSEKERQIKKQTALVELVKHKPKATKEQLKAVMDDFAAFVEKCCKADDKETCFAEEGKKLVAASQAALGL
Procedure: (§1) High performance liquid chromatography was performed using immobilized human serum albumin column (HPLCHSA) and immobilized artificial membrane (HPLCIAM). HPLC was the source of the log k values (logarithm of retention factor), log kHSA and log kIAM.
(§2) High performance liquid chromatography was performed using a chromatography column with immobilized human serum albumin. The assay was performed on a Perkin Elmer Series 200 instrument connected to a UV-VIS spectrometer as detector. The analytical wavelength was the same for all compounds at 210 nm. […] The acetate buffer was prepared by dissolving 0.77 g of ammonium acetate in 1 L of distilled water. The pH was then adjusted with a concentrated ammonia solution using a pH meter.
(§3) The phase flow through the system was set to 0.9 mL/min as recommended by the column manufacturer. The solutions were delivered to the column using an autosampler syringe, the injection size was 10 µL. Since the column could not be thermostated, the room was kept at a constant temperature of 25 degrees Celsius.
(§4) Chromatographic data (retention coefficient, k, and derivative, log k) were obtained with TotalChrom software connected to an HPLC instrument. […] The experiment was then repeated and the collected retention rates were the mean values of both series.

[3] = NP TLC on non-impregnated control plates; assay type: physicochemical; conditions: for CNP (Rf, control NP plate): Table S3, non-impregnated NP plate, acetonitrile/acetate buffer pH 7.4/methanol 60:20:20; for CNP (Rf value from the non-impregnated NP plate, control): Table S8, external group
[4] = RP TLC on non-impregnated control plates; assay type: physicochemical; conditions: for CRP (Rf, control RP plate): Table S4, non-impregnated RP plate, acetonitrile/acetate buffer pH 7.4/methanol 60:20:20; for CRP (Rf value from the non-impregnated RP plate, control): Table S8, external group
[5] = biological target: T2, bovine serum albumin (BSA) (Bos taurus, UniProt P02769); assay: NP TLC on plates impregnated with bovine serum albumin; assay type: binding; conditions: for NP (Rf, BSA-impregnated NP plate): Table S3, NP plate impregnated with 2 mg/mL BSA, pH 7.4 mobile phase; for NP (Rf value from the NP plate impregnated with 2 mg/mL BSA solution): Table S8, external group
T2 construct: purchased Sigma Aldrich
T2 sequence (P02769 25-607): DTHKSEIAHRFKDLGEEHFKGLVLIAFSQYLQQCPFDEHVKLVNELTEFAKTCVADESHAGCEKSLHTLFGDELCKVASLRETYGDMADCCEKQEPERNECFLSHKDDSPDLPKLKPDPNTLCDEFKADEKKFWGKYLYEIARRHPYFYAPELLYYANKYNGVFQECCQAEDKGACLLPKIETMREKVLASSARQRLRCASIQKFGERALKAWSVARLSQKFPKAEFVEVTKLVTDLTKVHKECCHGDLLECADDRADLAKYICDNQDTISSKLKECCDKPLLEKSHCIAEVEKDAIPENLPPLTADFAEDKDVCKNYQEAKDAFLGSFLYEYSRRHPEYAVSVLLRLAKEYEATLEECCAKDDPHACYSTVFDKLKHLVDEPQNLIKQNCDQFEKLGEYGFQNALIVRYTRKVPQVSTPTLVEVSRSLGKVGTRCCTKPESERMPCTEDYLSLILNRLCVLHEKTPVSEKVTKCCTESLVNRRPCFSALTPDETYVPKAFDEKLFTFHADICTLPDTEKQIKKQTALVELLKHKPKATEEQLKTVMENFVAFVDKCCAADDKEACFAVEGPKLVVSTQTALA

plasma protein = conditions: ref DrugBank [7], cited from earlier work
[6] = biological target: T2, bovine serum albumin (BSA); assay: RP TLC on plates impregnated with bovine serum albumin; assay type: binding; conditions: for RP (Rf, BSA-impregnated RP plate): Table S4, RP plate impregnated with 2 mg/mL BSA, pH 7.4 mobile phase; for RP (Rf value from the RP plate impregnated with 2 mg/mL BSA solution): Table S8, external group
Source text: Chromatographic descriptors were obtained in experiments, thin layer chromatography in normal (NP TLC) and reversed mode (RP TLC). The stationary phase was modified with bovine serum albumin (BSA). TLC was the source of retention factor (Rf) values, denoted in statistical models as NP and RP.
For TLC chromatography, glass plates 20 × 20 cm from Merck, covered with silica gel with the addition of a fluorescent indicator, were used. Normal phase (NP) plates were used with standard Merck TLC Silica gel 60 F254 plates, while in reverse phase (RP) silanized plates RP-2: Merck TLC Silica gel 60 RP-2 F254 were used.
The stationary phase of the plates, both NP and RP, was modified with an aqueous solution of bovine serum albumin purchased from Sigma Aldrich (bovine serum albumin, lyophilized powder).
The impregnation of the plates was carried out with a 2 mg/mL solution applied to the surface using a Desaga SG 1 hand sprayer; the plates were then air dried. […] Normal and reversed phase thin layer chromatography (NP TLC and RP TLC respectively) was performed using silica-gel-coated glass plates. Half of them were covered with 2 mg/mL bovine serum albumin solution and half remained pure.
The mobility of the compounds was also determined on the plates with no protein as a modifier. […] The acetate buffer (20 mM) was prepared by dissolving 1.54 g of ammonium acetate in 1 L of distilled water. The pH was then adjusted with a concentrated ammonia solution using a pH meter. The plates were developed in standard, vertical chromatographic chambers, each time using 100 mL of the mobile phase, after the chamber was previously saturated with solvent vapors for approximately 1 h.
The unfolded-protein-impregnated plates and the control plates were scanned with a Desaga CD 60 densitometer. The values of the delay factor (Rf) were collected, i.e., the ratio of the distance traveled by the substance to be analyzed to the distance traveled through the front of the mobile phase. […] The experiment was repeated (for both BSA-coated and control plates) and the Rf values pooled are the mean of both series of experiments.

[7] = Table S1, coded 1/0; ref DrugBank [7]; cited from earlier work
[8] = biological target: T1, human serum albumin (HSA); assay: in vitro; conditions: immobilized hsa column, pH 7.4
Procedure: as §1, §2, §3, §4

[9] = Table S5, retention factor, HSA column, pH 7.4, 25 degrees Celsius
[10] = human, immobilized hsa column, pH 7.4
[11] = Table S1, plasma protein binding given as fraction
[12] = Table S6, external group (n = 38), given as fraction

SMILES | log k IAM [1] | k IAM [1] | k HSA [2, 9] | CNP (Rf, control NP plate) [3] | CRP (Rf, control RP plate) [4] | NP (Rf, BSA-impregnated NP plate) [5] | PB (plasma protein; [11]) | RP (Rf, BSA-impregnated RP plate) [6] | CNS+/- [7] | chromatographic logD [8] | also measured
OC(CCN1CCCCC1)(c1ccccc1)C1CC2C=CC1C2 (stereo not shown) [biperiden] | 1.62 | 41.47 | 0.58 | 0.68 | 0.87 | 0.65 | 0.6 | 0.85 |  |  | log k HSA [2, 10]: -0.24
CC(C)NCC(O)COc1ccc(COCCOC(C)C)cc1 (stereo not shown) [bisoprolol] | 0.83 | 6.74 | 1.07 | 0.67 | 0.57 | 0.66 | 0.3 | 0.56 | 0 |  | 
C=CCN1C[C@H](C(=O)N(CCCN(C)C)C(=O)NCC)C[C@@H]2c3cccc4[nH]cc(c34)C[C@H]21 [carbegoline] | 1.23 | 17.05 | 3.23 | 0.68 | 0.68 | 0.68 | 0.41 | 0.68 |  |  | log k HSA ([2]; Table S5, HSA, pH 7.4): 0.51
CN1CCN(C2=Nc3cc(Cl)ccc3Nc3ccccc32)CC1 [clozapine] | 1.71 | 50.94 | 6.84 | 0.45 |  | 0.46 |  |  |  | 0.84 | 
CN(C)CCOC(c1ccccc1)c1ccccc1 [diphenhydramin] | 0.56 | 3.66 | 1.88 | 0.42 | 0.58 | 0.33 | 0.985 | 0.54 |  |  | log k HSA ([2]; Table S5, HSA, pH 7.4): 0.27
CCOc1ccc(/C=C2\NCCc3cc(OCC)c(OCC)cc32)cc1OCC [drotaverine] | 1.49 | 31.24 | 1.91 | 0.61 | 0.55 | 0.59 |  | 0.58 | 1 |  | log k HSA [2, 10]: 0.28
CNCC[C@H](Oc1cccc2ccccc12)c1cccs1 [duloxetine] |  |  |  |  |  |  |  |  |  | 0.91 | kIAM [1]: 2.84; log kIAM [1]: 0.45; kHSA [2]: 8.16; PB (plasma protein; [12]): 0.90
NCC1(CC(=O)O)CCCCC1 [gabapentin] |  |  |  |  |  |  |  |  |  | -0.84 | kIAM [1]: 1.70; log kIAM [1]: 0.23; kHSA [2]: 0.15; PB (plasma protein; [12]): 0.03
O=C(CCCN1CCC(O)(c2ccc(Cl)cc2)CC1)c1ccc(F)cc1 [haloperidol] | 1.38 | 23.74 | 4.8 | 0.66 | 0.61 | 0.65 | 0.92 | 0.64 |  |  | log k HSA ([2]; Table S5, HSA, pH 7.4): 0.68
CC(=O)OCC(=O)[C@@]1(O)CC[C@H]2[C@@H]3CCC4=CC(=O)CC[C@]4(C)[C@H]3[C@@H](O)C[C@@]21C [hydrocortisone acetate] | 0.45 | 2.82 | 0.66 | 0.96 |  | 0.96 | 0.95 |  |  | -0.18 | 
Cc1cc2c(s1)Nc1ccccc1N=C2N1CCN(C)CC1 [olanzapine] | 1.31 | 20.31 |  |  |  |  |  |  |  | 0.68 | k HSA ([2]; pH 7.4): 4.83
COc1ccnc(C[S+]([O-])c2nc3ccc(OC(F)F)cc3[nH]2)c1OC (stereo not shown) [pantoprazole] | 0.34 | 2.19 | 2.09 | 0.93 | 0.85 | 0.92 | 0.98 | 0.83 | 0 |  | log k HSA [2, 10]: 0.32
CCC[C@H](N[C@@H](C)C(=O)N1[C@H](C(=O)O)C[C@@H]2CCCC[C@@H]21)C(=O)OCC [perindopril] | -0.76 | 0.18 | 0.49 | 0.47 | 0.57 | 0.46 | 0.15 | 0.58 | 0 |  | log k HSA [2, 10]: -0.31
CC(C)NCC(O)COc1cccc2[nH]ccc12 (stereo not shown) [pindolol] | 0.78 | 6.09 | 1.65 | 0.53 |  | 0.52 | 0.4 |  |  | 0.22 | 
CC(C)C[C@H](CN)CC(=O)O [pregabalin] |  |  |  |  |  |  |  |  |  | -0.87 | kIAM [1]: 1.65; log kIAM [1]: 0.22; kHSA [2]: 0.14; PB (plasma protein; [12]): 0.00
CC(=O)[C@H]1CC[C@H]2[C@@H]3CCC4=CC(=O)CC[C@]4(C)[C@H]3CC[C@]12C [progesterone] | 1.54 | 34.99 | 5.7 | 0.96 | 0.71 | 0.96 | 0.975 | 0.68 |  |  | log k HSA ([2]; Table S5, HSA, pH 7.4): 0.76
CC(CN1c2ccccc2Sc2ccccc21)N(C)C (stereo not shown) [promethazine] | 1.17 | 14.96 | 5.35 | 0.43 | 0.49 | 0.42 | 0.93 | 0.47 | 1 |  | log k HSA ([2]; Table S5, HSA, pH 7.4): 0.73
OCCOCCN1CCN(C2=Nc3ccccc3Sc3ccccc32)CC1 [quetiapine] | 1.23 | 17.02 | 2.48 | 0.68 | 0.73 | 0.68 | 0.83 | 0.69 | 1 |  | log k HSA [2, 10]: 0.39
CO[C@H]1/C=C/O[C@@]2(C)Oc3c(C)c(O)c4c(O)c(c(/C=N/N5CCN(C)CC5)c(O)c4c3C2=O)NC(=O)/C(C)=C\C=C\[C@H](C)[C@H](O)[C@@H](C)[C@@H](O)[C@@H](C)[C@H](OC(C)=O)[C@@H]1C [rifampicin] |  |  |  |  |  |  |  |  |  |  | kIAM [1]: 8.37; log kIAM [1]: 0.92; kHSA ([2]; Table S9, external group): 0.03; log kHSA [2, 10]: -1.53; CNP (Rf value from the non-impregnated NP plate, control) [3]: 0.73; CRP (Rf value from the non-impregnated RP plate, control) [4]: 0.95; NP (Rf value from the NP plate impregnated with 2 mg/mL BSA solution) [5]: 0.77; PB (plasma protein; [12]): 0.89; RP (Rf value from the RP plate impregnated with 2 mg/mL BSA solution) [6]: 0.94
Cc1nc2n(c(=O)c1CCN1CCC(c3noc4cc(F)ccc34)CC1)CCCC2 [risperidone] | 0.68 | 4.83 |  |  |  |  |  |  |  | 0.32 | k HSA ([2]; pH 7.4): 2.11
CCCc1nc2c(C)cc(-c3nc4ccccc4n3C)cc2n1Cc1ccc(-c2ccccc2C(=O)O)cc1 [telmisartan] | 0.67 | 4.68 |  | 0.90 | 0.87 | 0.90 | 0.995 | 0.85 | 1 |  | 
CC(C)(C)NC[C@H](O)COc1nsnc1N1CCOCC1 [timolol] |  |  |  |  |  |  |  |  |  |  | kIAM [1]: 2.88; log kIAM [1]: 0.46; kHSA ([2]; Table S9, external group): 0.13; CNP (Rf value from the non-impregnated NP plate, control) [3]: 0.34; CRP (Rf value from the non-impregnated RP plate, control) [4]: 0.97; NP (Rf value from the NP plate impregnated with 2 mg/mL BSA solution) [5]: 0.32; PB (plasma protein; [12]): 0.10; RP (Rf value from the RP plate impregnated with 2 mg/mL BSA solution) [6]: 0.97
Cc1ccc(O)c([C@H](CCN(C(C)C)C(C)C)c2ccccc2)c1 [tolterodine] | -0.68 | 0.21 |  |  |  |  |  |  |  | 0.46 | k HSA ([2]; pH 7.4): 2.9
CCN(Cc1ccncc1)C(=O)C(CO)c1ccccc1 (stereo not shown) [tropicamid] | 0.03 | 1.06 | 0.15 | 0.85 | 0.83 | 0.86 | 0.45 | 0.83 | 1 |  | log k HSA ([2]; Table S5, HSA, pH 7.4): -0.82
COc1ccc(C(CN(C)C)C2(O)CCCCC2)cc1 (stereo not shown) [venlafaxine] | 0.92 | 8.25 |  |  |  |  | 0.27 |  |  | 0.02 | k HSA ([2]; pH 7.4): 1.05
CN(C)CCc1c[nH]c2ccc(C[C@H]3COC(=O)N3)cc12 [zolmitriptane] | 0.52 | 3.30 | 1.7 | 0.31 | 0.86 | 0.29 | 0.25 | 0.86 |  |  | log k HSA ([2]; Table S5, HSA, pH 7.4): 0.23
